“And” between values parts separate entries of the source, which are not always exact repeats. Identical values can stand only once. Inconclusive results and toxic doses are left out.

Data on 21 compounds can be found in PubChem BioAssay AID192 (DTP/NCI, 2004).

The experiment concerns BDF1 mice, B16 melanoma ip, median survival T/C. As to the kind of experiment: NCI In Vivo Anticancer Drug Screen. Data for tumor model B16 Melanoma (intraperitoneal) in B6D2F1 (BDF1) mice. Particulars: endpoint: median survival time, higher = longer survival. Summed up: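 Antitumor activity is assessed in mice bearing a transplanted tumor, with survival or tumor size compared against vehicle-dosed controls and expressed as T/C.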

Where [1] appears, read: dose: 12.5 mg/kg/injection, schedule: Q01DX009 (ip), vehicle: saline.
Setting [2] is: dose: 20.0 mg/kg/injection, schedule: Q01DX009 (ip), vehicle: saline with Tween-80.
The mark [3] stands for this setting: dose: 25.0 mg/kg/injection, schedule: Q01DX009 (ip), vehicle: saline.
Where [4] appears, read: dose: 40.0 mg/kg/injection, schedule: Q01DX009 (ip), vehicle: saline with Tween-80.
[5] abbreviates: dose: 50.0 mg/kg/injection, schedule: Q01DX009 (ip), vehicle: saline.
Setting [6] is: dose: 100.0 mg/kg/injection, schedule: Q01DX009 (ip), vehicle: saline with Tween-80.
Setting [7] is: dose: 100.0 mg/kg/injection, schedule: Q01DX009 (ip), vehicle: saline.
The mark [8] stands for this setting: dose: 200.0 mg/kg/injection, schedule: Q01DX009 (ip), vehicle: saline.
Where [9] appears, read: dose: 100.0 mg/kg/injection, schedule: Q01DX009 (ip), vehicle: Klucel (hydroxypropylcellulose) (HPC).
Where [10] appears, read: dose: 200.0 mg/kg/injection, schedule: Q01DX009 (ip), vehicle: Klucel (hydroxypropylcellulose) (HPC).
Where [11] appears, read: dose: 400.0 mg/kg/injection, schedule: Q01DX009 (ip), vehicle: Klucel (hydroxypropylcellulose) (HPC).
The mark [12] stands for this setting: dose: 1.0 mg/kg/injection, schedule: Q01DX009 (ip), vehicle: saline with Tween-80.
[13] abbreviates: dose: 25.0 mg/kg/injection, schedule: Q01DX009 (ip), vehicle: saline with Tween-80.
[14] abbreviates: dose: 50.0 mg/kg/injection, schedule: Q01DX009 (ip), vehicle: saline with Tween-80.

As to `OC(CBr)C(O)C(O)C(O)CBr` (configuration not stated), the T/C under setting [1] was 110 % of control; the T/C under setting [2] was 107 % of control; the T/C under setting [3] was 107 % of control; the T/C (dose: 25.9 mg/kg/injection, schedule: Q01DX009 (ip), vehicle: saline with Tween-80) is 109 % of control; the T/C under setting [4] was 100 % of control; the T/C (dose: 43.2 mg/kg/injection, schedule: Q01DX009 (ip), vehicle: saline with Tween-80) was 105 % of control. Also, the T/C is, setting by setting: under setting [5], 120 % of control and 107 % of control; (dose: 72.0 mg/kg/injection, schedule: Q01DX009 (ip), vehicle: saline with Tween-80) 116 % of control; (dose: 80.0 mg/kg/injection, schedule: Q01DX009 (ip), vehicle: saline with Tween-80) 108 % of control; under setting [6], 103 % of control and 120 % of control; under setting [7], 107 % of control; (dose: 120.0 mg/kg/injection, schedule: Q01DX009 (ip), vehicle: saline with Tween-80) 101 % of control. For the same compound, the T/C is 115 % of control (dose: 160.0 mg/kg/injection, schedule: Q01DX009 (ip), vehicle: saline with Tween-80); 113 % of control and 114 % of control (dose: 200.0 mg/kg/injection, schedule: Q01DX009 (ip), vehicle: saline with Tween-80); 117 % of control and 110 % of control under setting [8]; 82 % of control (dose: 300.0 mg/kg/injection, schedule: Q01DX009 (ip), vehicle: saline with Tween-80); 55 % of control (dose: 555.8 mg/kg/injection, schedule: Q01DX009 (ip), vehicle: saline with Tween-80); 112 % of control (dose: 800.0 mg/kg/injection, schedule: Q01DX009 (ip), vehicle: saline with Tween-80).

Turning to `CC[C@@H](C)[C@@H]1NC(=O)C(NC(=O)C(CC(C)C)N(C)C(=O)C2CCCN2C(=O)C(C)O)C(C)OC(=O)C(Cc2ccc(OC)cc2)N(C)C(=O)C2CCCN2C(=O)C(CC(C)C)NC(=O)C(C)C(=O)C(C(C)C)OC(=O)C[C@H]1O` (some centres not stated), the T/C runs as follows: (dose: 80.0 micrograms/kg/injection, schedule: Q01DX009 (ip), vehicle: clinical formulation) 161 % of control; (dose: 160.0 micrograms/kg/injection, schedule: Q01DX009 (ip), vehicle: clinical formulation) 160 % of control; (dose: 160.0 micrograms/kg/injection, schedule: Q01DX009 (ip), vehicle: distilled water + alcohol) 160 % of control; (dose: 320.0 micrograms/kg/injection, schedule: Q01DX009 (ip), vehicle: clinical formulation) 153 % of control; (dose: 320.0 micrograms/kg/injection, schedule: Q01DX009 (ip), vehicle: distilled water + alcohol) 172 % of control.

With `COc1ccccc1CC(C)N` (configuration not stated), the T/C reads like this: under setting [2], 97 % of control; under setting [4], 95 % of control.

In the case of `O=C(Cl)c1ccc(OC(Cl)(Cl)Cl)cc1`, the T/C under setting [9] is 100 % of control, the T/C under setting [10] was 93 % of control and the T/C under setting [11] is 86 % of control.

As for `COc1c2c(cc3c1C(Cl)N(C)CC3)OCO2` (configuration not stated), the T/C under setting [1] is 96 % of control, the T/C under setting [3] was 110 % of control and the T/C under setting [5] is 106 % of control.

As to `S=C1SCN(C2CCCCC2)CN1C1CCCCC1`, the T/C is 93 % of control (dose: 100.0 mg/kg/injection, schedule: Q04DX003 (ip), vehicle: Klucel (hydroxypropylcellulose) (HPC)); 90 % of control (dose: 200.0 mg/kg/injection, schedule: Q04DX003 (ip), vehicle: Klucel (hydroxypropylcellulose) (HPC)); 86 % of control (dose: 400.0 mg/kg/injection, schedule: Q04DX003 (ip), vehicle: Klucel (hydroxypropylcellulose) (HPC)).

Turning to `C=C1[C@@H](O)[C@]2(O)OC[C@@]34[C@H]1[C@@H](OC(=O)C(C)CC)C(=O)O[C@@H]3C[C@H]1C(C)=CC(=O)[C@@H](O)[C@]1(C)[C@@H]24` (some centres not stated), the T/C reads like this: (dose: 0.5 mg/kg/injection, schedule: Q01DX009 (ip), vehicle: saline with Tween-80) 116 % of control; under setting [12], 118 % of control.

In the case of `CCC(C)Nc1ccc(N)cc1` (configuration not stated), the T/C runs as follows: (dose: 0.09 mg/kg/injection, schedule: Q01DX009 (ip), vehicle: Klucel (hydroxypropylcellulose) (HPC)) 97 % of control; (dose: 0.18 mg/kg/injection, schedule: Q01DX009 (ip), vehicle: Klucel (hydroxypropylcellulose) (HPC)) 99 % of control; (dose: 0.37 mg/kg/injection, schedule: Q01DX009 (ip), vehicle: Klucel (hydroxypropylcellulose) (HPC)) 89 % of control; (dose: 0.75 mg/kg/injection, schedule: Q01DX009 (ip), vehicle: Klucel (hydroxypropylcellulose) (HPC)) 99 % of control.

As to `COc1ccc(CC2C(=O)NC(C)C(=O)N(C)C3C(=O)N(C)C(Cc4ccc(O)c(c4)Oc4ccc(cc4)C3O)C(=O)NC(C)C(=O)NC(C)C(=O)N2C)cc1` (configuration not stated) (tested in a mixture with another compound), the T/C was 97 % of control (dose: 0.12 mg/kg/injection, schedule: Q01DX009 (ip), vehicle: other); 109 % of control (dose: 0.25 mg/kg/injection, schedule: Q01DX009 (ip), vehicle: other); 161 % of control (dose: 0.5 mg/kg/injection, schedule: Q01DX009 (ip), vehicle: other); 152 % of control (dose: 1.0 mg/kg/injection, schedule: Q01DX009 (ip), vehicle: other); 154 % of control under setting [12]; 157 % of control (dose: 2.0 mg/kg/injection, schedule: Q01DX009 (ip), vehicle: saline with Tween-80). The T/C is 152 % of control (dose: 250.0 micrograms/kg/injection, schedule: Q01DX009 (ip), vehicle: saline) and 154 % of control (dose: 2000.0 micrograms/kg/injection, schedule: Q01DX009 (ip), vehicle: saline).

Take `O=c1[nH]c2cc(Cl)ccc2c(CCl)c1Cl`: the T/C under setting [13] was 88 % of control and 95 % of control; the T/C under setting [14] is 88 % of control and 95 % of control; the T/C under setting [6] was 93 % of control and 100 % of control.

On to `Nc1ncnc(N)c1N=O`, for which the T/C runs as follows: under setting [5], 118 % of control; under setting [7], 115 % of control.

As to `CCNC1=C(N2CC2)C(=O)C(NCC)=C(N2CC2)C1=O`, the T/C (dose: 0.37 mg/kg/injection, schedule: Q01DX009 (ip), vehicle: saline) is 112 % of control; the T/C (dose: 0.75 mg/kg/injection, schedule: Q01DX009 (ip), vehicle: saline) is 104 % of control and 116 % of control.

Turning to `CC(NC(C)c1ccccc1)c1ccccc1` (configuration not stated), the T/C by setting is: (dose: 25.0 mg/kg/injection, schedule: Q01DX009 (ip), vehicle: Klucel (hydroxypropylcellulose) (HPC)) 93 % of control; (dose: 50.0 mg/kg/injection, schedule: Q01DX009 (ip), vehicle: Klucel (hydroxypropylcellulose) (HPC)) 106 % of control; under setting [9], 96 % of control.

As to `CN(C)CCC(c1ccccc1)c1cc(Cl)ccn1` (configuration not stated), the T/C was 100 % of control (dose: 6.25 mg/kg/injection, schedule: Q01DX009 (ip), vehicle: saline); 103 % of control under setting [1]; 97 % of control under setting [3]; 97 % of control under setting [5]; 99 % of control under setting [7].

Consider `CCN(CC)CCOC(=O)c1cccnc1`, for which the T/C runs as follows: under setting [3], 100 % of control; under setting [5], 105 % of control; under setting [7], 102 % of control; under setting [8], 102 % of control; (dose: 400.0 mg/kg/injection, schedule: Q01DX009 (ip), vehicle: saline) 100 % of control.

In the case of `CC[CH2][Pb]([CH2]CC)([CH2]CC)[O]C(=O)c1ccccc1`, the T/C is, setting by setting: (dose: 1.56 mg/kg/injection, schedule: Q01DX009 (ip), vehicle: Klucel (hydroxypropylcellulose) (HPC)) 103 % of control; (dose: 3.13 mg/kg/injection, schedule: Q01DX009 (ip), vehicle: Klucel (hydroxypropylcellulose) (HPC)) 96 % of control.

As for `CCCNCCNc1ccc(NCCNCCC)c2c1C(=O)c1ccccc1C2=O`, the T/C runs as follows: (dose: 16.0 mg/kg/injection, schedule: Q01DX009 (ip), vehicle: acid diluted with saline) 112 % of control; (dose: 32.0 mg/kg/injection, schedule: Q01DX009 (ip), vehicle: acid diluted with saline) 99 % of control.

For `Oc1cc(Br)ccc1C=Nc1ccc(N2CCCCC2)cc1`, the T/C runs as follows: under setting [9], 106 % of control; under setting [10], 93 % of control; under setting [11], 93 % of control.

Turning to `Cc1ccc(N=C(c2ccc([N+](=O)[O-])cc2)c2ccc([N+](=O)[O-])cc2)cc1`, the T/C is, setting by setting: under setting [9], 111 % of control; under setting [10], 97 % of control; under setting [11], 91 % of control.

In the case of `ClC1=C(Cl)C(Cl)(Cl)C(Cl)(Cl)C1(Cl)Cl`, the T/C under setting [9] is 103 % of control.

As to `CCCCc1c(C)[nH]c(=S)[nH]c1=O`, the T/C reads like this: under setting [13], 110 % of control; under setting [14], 104 % of control; under setting [6], 97 % of control.
